One series has as its target MC4 receptor (Homo sapiens, UniProt P32245). Put plainly: MC4 functional agonist potency (EC50), assay protocol E of US2005/0176772 / WO 2005/077935. It counts as cell-based. The note with it: functional potency at the MC4 receptor. As to the method:
The compounds of formula (I) of the present invention have utility as MCR4 agonists in the treatment of various disease states.
MC5 and MC4 EC50 activity was determined as described by assay protocols D and E, respectively, in US2005/0176772 (pages 28-30).

The next series addresses T1, CYP3A4 (Homo sapiens, UniProt P08684).
T1 construct: utilizes human liver microsomes together with isoform-specific clinical drug probes; from tissue; host or cells: human liver microsomes
Put plainly: High density drug-drug interactions (DDI) 3 μM cocktail screen in human liver microsomes. Format: in vitro ADME. The settings on record: 3 uM test compound, pooled human liver microsomes, probe midazolam 2 μM; read-out: % Inhibition of 3A4 metabolism at 3 uM. As to the method:
High Density Drug-Drug Interactions (DDI) 3 μM Cocktail Screen
A drug interaction is a situation in which a substance affects the activity of another drug, i.e. the effects are increased or decreased, or together they produce a new effect that neither produces on its own. Drug interactions may be the result of various processes but a relatively common one is where one drug affects the pharmacokinetics of another by inhibiting the cytochrome P450 that metabolises it. Because of the importance of these phenomena, assessment of the DDI potential for new chemical entities (NCEs) is considered important early on in the drug discovery process.
The DDI cocktail screen in human liver microsomes (HLM) is run in a fully automated fashion and the aim of the screen is to provide a single-point assessment of the DDI potential of new chemical entity (NCE; tested at 3 μM) against the 4 primary cytochrome P450 enzymes, 1A2, 2D6, 2C9 and 3A4.
The substrate cocktail approach for P450 DDI utilizes human liver microsomes together with isoform-specific clinical drug probes and permits the simultaneous measurement of the inhibition of P450 1A2, 2C9, 2D6 & 3A4 activities in a single incubation. This is run in high throughput with simultaneous detection of metabolites by LC-MS/MS. This method has been thoroughly tested and evaluated using standard compounds.
Appearance of the metabolite of each substrate is measured over time in the presence and absence of the NCE (test compound/inhibitor) at a concentration of 3 μM. The compounds are assessed for their inhibitory potential as a percentage value and interpreted using the following scheme.
Background: Microsomes from liver hold many membrane-bound enzymes, among them those of drug oxidation.

Series [1] can be described thus: In vitro metabolism rate determination, rat liver microsome (RLM) assay. Format: in vitro ADME. The note with it: rat liver microsomes, substrate 1 μM; read-out: RLM (intrinsic clearance). The text has this: In vitro Metabolism Rate Determination (Human Liver Microsome (HLM); Rat Liver Microsome (RLM) Assay)
Many drugs are metabolised by the cytochrome P450 mono-oxygenase system. This enzyme is found in high concentrations in the liver and is bound to the endoplasmic reticulum of the hepatocyte. The enzyme system can be obtained in semi-purified state by the preparation of the hepatic microsomal fractions. Determining a compound's in vitro half-life in such a system provides a useful indicator of metabolic stability.
Methodology For In Vitro Rate Determination Using Hepatic & Supermix Microsomes
The method outlined below is for a total incubation volume of 1.5 ml.
1. The following mixture is prepared in a test tube:
2. Defrost microsomes at room temperature and add sufficient microsomes to give a final concentration of 0.5 nmol cytochrome P450/ml of incubation e.g. for a 1.5 ml incubation, the volume of microsomes to be added is:
[formula] 3. Add sufficient MilliQ water to give a total incubation volume of 1.425 ml. 4. Remove 237.5 μl of incubation mix and place in test tube for PNA positive control. Add 2.5 μl of PNA solution, whirlimix, and put tube into a rack in the thermostatically controlled shaking water bath 5. Remove 100 μl for no substrate control and dispense in test tube. Place test tube in a rack in the thermostatically controlled shaking water bath. 6. Add substrate to the incubation. The substrate should be at an initial concentration of 1 μM. The volume of substrate required in the remaining 1.162.5 ml incubation is calculated as follows:
[formula] • N.B. The volume of organic solvent added should not exceed 0.1% of the total incubation volume. 7. Remove 100 μl of incubation mix into test tube for no cofactor control. Whirlimix and put into a rack in the thermostatically controlled shaking water bath. 8. Pre-incubate the tube containing the incubation mix, also positive control and no cofactor tubes in the thermostatically controlled shaking water bath set at 37° C. for approx 5 min. 9. Add NADP to initiate reaction (75 μl to each 1.162.5 ml incubation mix, 12.5 μl to positive control tube and 5 μl to no substrate tube) and take first time point immediately. The PNA positive control, no cofactor control and no substrate tubes are incubated for the total incubation time. 10. Remove 100 μl aliquots up to 9 different sampling points from 0 to 60 min (usually 0, 3, 5, 10, 15, 20, 30, 45 & 60 min) and terminate reaction. Longer incubation times can be used, but, after 120 min the microsomes deteriorate. The reaction may be terminated by addition of organic solvent, acid or base. At the end of the incubation process the no cofactor and no substrate controls in a similar manner i.e. terminate with the same reagent. 11. PNA Positive Control Procedure: • After the final sample has been taken, remove the positive control and add 1 ml 20% TCA to this tube. Also prepare a tube containing 250 μl of a PNP standard at 50 μM, and add 1 ml 20% TCA. Whirlimix both tubes and leave for approx 5 min to allow the protein to precipitate. • Centrifuge both tubes for approx 5 min in an instrument set at 3500 rpm. Remove 1 ml of supernatant and place into clean test tubes, discard the remainder. • Add 1 ml 10M NaOH to the supernatant, whirlimix, and leave to stand for approx min. Blank spectrophotometer with distilled water at 400 nm then measure absorbance of the PNP standard against distilled water. The microsomal 4-nitroanisole O-demethylase activity is calculated as follows: Calculation of Results
[formula] • The activity value from the incubation MUST be equal to or greater than 85% of the mean value of the batch used for the incubation to be valid. If this criteria is not met, then the incubation must be repeated. 11. Analyse samples (including no cofactor and no substrate control) by a specific assay for the substrate to determine the disappearance kinetics. Analysis Of Data […]

Data on 17 compounds can be found in US8138188B2, “Melanocortin type 4 receptor agonist piperidinoylpyrrolidines” (Pfizer Inc., priority 2006, dated 2012).

A value given as a limit tells only on which side of the number the result lay.

T1 sequence (P08684 whole entry, canonical isoform): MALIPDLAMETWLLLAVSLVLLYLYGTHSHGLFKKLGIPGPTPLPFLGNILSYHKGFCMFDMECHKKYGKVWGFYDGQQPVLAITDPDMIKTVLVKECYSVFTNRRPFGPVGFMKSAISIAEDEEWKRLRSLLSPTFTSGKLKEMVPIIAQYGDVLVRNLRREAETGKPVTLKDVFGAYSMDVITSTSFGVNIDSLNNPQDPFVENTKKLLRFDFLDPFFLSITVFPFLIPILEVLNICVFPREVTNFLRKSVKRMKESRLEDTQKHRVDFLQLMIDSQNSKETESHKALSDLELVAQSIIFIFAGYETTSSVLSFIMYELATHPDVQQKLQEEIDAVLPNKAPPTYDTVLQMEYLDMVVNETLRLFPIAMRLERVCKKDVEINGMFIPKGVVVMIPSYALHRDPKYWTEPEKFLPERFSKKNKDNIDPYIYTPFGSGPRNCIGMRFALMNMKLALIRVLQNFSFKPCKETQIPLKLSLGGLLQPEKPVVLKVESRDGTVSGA
Sequence of MC4 receptor (P32245 whole entry): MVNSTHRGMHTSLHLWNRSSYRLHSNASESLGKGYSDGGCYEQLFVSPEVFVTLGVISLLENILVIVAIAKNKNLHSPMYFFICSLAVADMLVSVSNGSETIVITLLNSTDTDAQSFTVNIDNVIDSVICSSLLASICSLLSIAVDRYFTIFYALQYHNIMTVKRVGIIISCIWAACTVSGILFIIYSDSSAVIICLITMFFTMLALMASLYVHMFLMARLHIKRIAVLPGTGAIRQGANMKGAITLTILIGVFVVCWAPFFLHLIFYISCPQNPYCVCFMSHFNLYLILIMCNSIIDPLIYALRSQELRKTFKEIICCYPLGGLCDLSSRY

For the compound `C[C@@H]1CN(C(=O)[C@@H]2CN(c3ccc(C#N)cn3)C[C@H]2c2ccc(Cl)cn2)C[C@H](C)[C@@]1(O)c1ccc(F)cc1` [Example 1, 6-[(3S,4S)-3-(5-Chloropyridin-2-yl)-4-{[(3R,4R,5S)-4-(4-fluorophenyl)-4-hydroxy-3,5-dimethylpiperidin-1-yl]carbonyl}pyrrolidin-1-yl]nicotinonitrile], the EC50 (usually the concentration at which the effect is half-maximal) on MC4 receptor was below 0.00052 µM. Further, the inhibition – broadly, the change of the read-out against control, counted positive when it falls – at 3 μM at CYP3A4 is 54%. Further, in series [1], the microsomal CLint at 1 μM was below 8.5 µL/min/mg.

On MC4 receptor, `C[C@@H]1CN(C(=O)[C@@H]2CN(c3ccc(C#N)nn3)C[C@H]2c2ccc(Cl)cn2)C[C@H](C)[C@@]1(O)c1ccc(F)cc1` [Example 2, 6-[(3S,4S)-3-(5-Chloropyridin-2-yl)-4-{[(3R,4R,5S)-4-(4-fluorophenyl)-4-hydroxy-3,5-dimethylpiperidin-1-yl]carbonyl}pyrrolidin-1-yl]pyridazine-3-carbonitrile] returned an EC50 of 0.00453 µM. Further, at CYP3A4, the inhibition at 3 μM was found to be 64%. For the same compound, in series [1], the microsomal CLint at 1 μM came to 31 µL/min/mg.

As to `COc1ccc(N2C[C@@H](C(=O)N3C[C@@H](C)[C@](O)(c4ccc(F)cc4)[C@@H](C)C3)[C@H](c3ccc(Cl)cn3)C2)nn1` [Example 4, (3R,4R,5S)-1-{[(3S,4S)-4-(5-chloropyridin-2-yl)-1-(6-methoxypyridazin-3-yl)pyrrolidin-3-yl]carbonyl}-4-(4-fluorophenyl)-3,5-dimethylpiperidin-4-ol], on CYP3A4, the inhibition at 3 μM was 38%. Also, in series [1], the microsomal CLint at 1 μM is 74 µL/min/mg.

As for `C[C@@H]1CN(C(=O)[C@@H]2CN(c3ccc(Cl)nn3)C[C@H]2c2ccc(F)cn2)C[C@H](C)[C@@]1(O)c1ccc(Cl)cc1` [Example 5, (3R,4R,5S)-4-(4-chlorophenyl)-1-{[(3S,4S)-1-(6-chloropyridazin-3-yl)-4-(5-fluoropyridin-2-yl)pyrrolidin-3-yl]carbonyl}-3,5-dimethylpiperidin-4-ol], a half-maximal response on MC4 receptor (EC50) required 0.137 µM. Further, the inhibition at 3 μM on CYP3A4 was 34%. Besides, the microsomal CLint at 1 μM in series [1] came to 27 µL/min/mg.

At MC4 receptor, `C[C@@H]1CN(C(=O)[C@@H]2CN(c3ccc(=O)[nH]n3)C[C@H]2c2ccc(F)cn2)C[C@H](C)[C@@]1(O)c1ccc(Cl)cc1` [Example 6, 6-[(3S,4S)-3-{[(3R,4R,5S)-4-(4-chlorophenyl)-4-hydroxy-3,5-dimethylpiperidin-1-yl]carbonyl}-4-(5-fluoropyridin-2-yl)pyrrolidin-1-yl]pyridazin-3(2H)-one] displayed an EC50 of 0.0189 µM. Besides, the inhibition at 3 μM at CYP3A4 was found to be 32%. Also, in series [1], the microsomal CLint at 1 μM is below 8.5 µL/min/mg.

With `C[C@@H]1CN(C(=O)[C@@H]2CN(c3ccc(=O)n(C)n3)C[C@H]2c2ccc(F)cn2)C[C@H](C)[C@@]1(O)c1ccc(Cl)cc1` [Example 7, 6-[(3S,4S)-3-{[(3R,4R,5S)-4-(4-chlorophenyl)-4-hydroxy-3,5-dimethylpiperidin-1-yl]carbonyl}-4-(5-fluoropyridin-2-yl)pyrrolidin-1-yl]-2-methylpyridazin-3(2H)-one], a half-maximal effect on MC4 receptor (EC50) was put at 0.04 µM. The inhibition at 3 μM on CYP3A4 was found to be 19%. In addition, the microsomal CLint at 1 μM in series [1] stood at 11 µL/min/mg.

As for `C[C@@H]1CN(C(=O)[C@@H]2CN(c3cncc(F)c3)C[C@H]2c2ccc(Cl)cn2)C[C@H](C)[C@@]1(O)c1ccccn1` [Example 8, (3R,4R,5S)-1-{[(3S,4S)-4-(5-chloropyridin-2-yl)-1-(5-fluoropyridin-3-yl)pyrrolidin-3-yl]carbonyl}-3,5-dimethyl-4-pyridin-2-ylpiperidin-4-ol], the EC50 on MC4 receptor is 0.0275 µM. Moreover, the inhibition at 3 μM at CYP3A4 was determined as 94%. Further, in series [1], the microsomal CLint at 1 μM was above 510 µL/min/mg.

`C[C@@H]1CN(C(=O)[C@@H]2CN(c3cccnn3)C[C@H]2c2ccc(Cl)cn2)C[C@H](C)[C@@]1(O)c1ccccn1` [Example 9, (3R,4R,5S)-1-{[(3S,4S)-4-(5-chloropyridin-2-yl)-1-pyridazin-3-ylpyrrolidin-3-yl]carbonyl}-3,5-dimethyl-4-pyridin-2-ylpiperidin-4-ol] registered an EC50 on MC4 receptor of 0.0393 µM. Moreover, the inhibition at 3 μM at CYP3A4 amounted to 68%. In addition, the microsomal CLint at 1 μM in series [1] was determined as 411 µL/min/mg.

As to `C[C@@H]1CN(C(=O)[C@@H]2CN(c3ccc(=O)n(C)n3)C[C@H]2c2ccc(Cl)cn2)C[C@H](C)[C@@]1(O)c1ccc(Cl)cn1` [Example 10], the EC50 on MC4 receptor worked out at 0.0119 µM. The inhibition at 3 μM at CYP3A4 is 19%. In addition, the microsomal CLint at 1 μM in series [1] was 42 µL/min/mg.

`COc1ccc(C2CN(c3ccc(C#N)nn3)CC2C(=O)N2CC(C)C(O)(c3ccc(F)cc3)C(C)C2)cn1` (stereo not shown) [Example 16]: on MC4 receptor, the EC50 is 0.0343 µM. In addition, the inhibition at 3 μM on CYP3A4 was 83%. Further, in series [1], the microsomal CLint at 1 μM was below 8.5 µL/min/mg.

`C[C@@H]1CN(C(=O)[C@@H]2CN(c3ccc(=O)n(C)n3)C[C@H]2c2ccc(Cl)cn2)C[C@H](C)[C@@]1(O)C1CCCCC1` [Example 17] yielded a 50% effective concentration (EC50) at MC4 receptor of 0.00159 µM. Besides, at CYP3A4, the inhibition at 3 μM worked out at 35%. The microsomal CLint at 1 μM in series [1] was above 510 µL/min/mg.

`C[C@@H]1CN(C(=O)[C@@H]2CN(c3ccc(=O)n(C)n3)C[C@H]2c2ccc(Cl)cn2)C[C@H](C)[C@@]1(O)C1CC1` [Example 18]: the concentration giving a half-maximal response (EC50) at MC4 receptor stood at 0.0555 µM. In addition, at CYP3A4, the inhibition at 3 μM amounted to 34%. In series [1], the microsomal CLint at 1 μM was found to be 68 µL/min/mg.

On to `CC1CN(C(=O)C2CN(c3ccc(=O)n(C)n3)CC2c2ccc(Cl)cn2)CC(C)C1(O)c1ccc(F)c(F)c1` (stereo not shown) [Example 19], for which, at MC4 receptor, the EC50 was determined as 0.0065 µM. Also, at CYP3A4, the inhibition at 3 μM stood at 50%. Also, the microsomal CLint at 1 μM in series [1] was 21 µL/min/mg.

Turning to `CC1CN(C(=O)C2CN(c3ccc(=O)[nH]n3)CC2c2ccc(F)cn2)CC(C)C1(O)c1ccccc1` (stereo not shown) [Example 37], the inhibition at 3 μM on CYP3A4 is 45%. Moreover, in series [1], the microsomal CLint at 1 μM was 23 µL/min/mg.

As for `CC1CN(C(=O)C2CN(c3ccc(=O)n(C)n3)CC2c2ccc(F)cn2)CC(C)C1(O)c1ccccc1` (stereo not shown) [Example 39], the inhibition at 3 μM at CYP3A4 turned out to be 30%. Also, the microsomal CLint at 1 μM in series [1] came to 58 µL/min/mg.

For `COc1ccc(C2CN(c3ccc(=O)[nH]n3)CC2C(=O)N2CC(C)C(O)(c3ccc(F)cc3)C(C)C2)nc1` (stereo not shown) [Example 42], the inhibition at 3 μM at CYP3A4 was determined as 59%. In addition, the microsomal CLint at 1 μM in series [1] is 25 µL/min/mg.

For the compound `COc1ccc([C@@H]2CN(c3ccc(C#N)nn3)C[C@H]2C(=O)N2C[C@@H](C)[C@](O)(c3ccc(F)cc3)[C@@H](C)C2)nc1` [Example 43], the midpoint of the response on MC4 receptor, the EC50, lay at 0.0493 µM. In addition, the inhibition at 3 μM at CYP3A4 amounted to 44%.
